Assay results taken from patent publication US20120165304A1, “6,7,8,9-Tetrahydro-5H-1,4,7,10a-tetraaza-cyclohept[f]indene derivatives, pharmaceutical compositions containing these compounds, their use and processes for preparing them” (BOEHRINGER INGELHEIM INTERNATIONAL GMBH, priority 2008, published 2012).

Each compound was assayed against human 5-HT2C receptor (Homo sapiens, UniProt P28335, I156V/I160V/N158S) (assay: cell-based).
Chain of human 5-HT2C receptor (P28335 33-458 I156V/N158S/I160V limits assumed): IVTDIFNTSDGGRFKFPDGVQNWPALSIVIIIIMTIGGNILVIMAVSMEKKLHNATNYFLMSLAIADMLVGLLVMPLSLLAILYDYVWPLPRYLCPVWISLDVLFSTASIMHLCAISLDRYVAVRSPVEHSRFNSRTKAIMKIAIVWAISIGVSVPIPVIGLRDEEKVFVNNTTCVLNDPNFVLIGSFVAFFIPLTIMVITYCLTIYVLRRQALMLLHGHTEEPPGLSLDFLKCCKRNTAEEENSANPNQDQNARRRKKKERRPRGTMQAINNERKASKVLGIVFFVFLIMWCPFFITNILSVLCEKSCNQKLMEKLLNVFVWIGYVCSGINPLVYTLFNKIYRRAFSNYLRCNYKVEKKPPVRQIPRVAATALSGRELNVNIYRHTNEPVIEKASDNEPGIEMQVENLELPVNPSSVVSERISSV

Structure (SMILES) | EC50 [µM]
c1ccc(COC2CN(c3c4c(nc5ccnn35)CCNCC4)C2)cc1 [Example 20, 10-(3-Benzyloxy-azetidin-1-yl)-6,7,8,9-tetrahydro-5H-1,4,7,10a-tetraaza-cyclohepta[f]indene] | 0.35
Fc1ccc(Cl)c(OCC2CN(c3c4c(nc5ccnn35)CCNCC4)C2)c1 [Example 15.15] | 0.002
COCC1CN(c2c3c(nc4ccnn24)CCNCC3)C1 [Example 16, 10-(3-Methoxymethyl-azetidin-1-yl)-6,7,8,9-tetrahydro-5H-1,4,7,10a-tetraaza-cyclohepta[f]indene] | 0.211
CN(Cc1cccc(F)c1)C(=O)C1CN(c2c3c(nc4ccnn24)CCNCC3)C1 [Example 31.125] | 0.038
CC(C)c1ccccc1OC1CCN(C(=O)C2CN(c3c4c(nc5ccnn35)CCNCC4)C2)CC1 [Example 31.219] | 0.124
CN(Cc1ccc(Cl)cc1)C(=O)C1CN(c2c3c(nc4ccnn24)CCNCC3)C1 [Example 31.40] | 0.04
COc1ccccc1N(C)C(=O)C1CN(c2c3c(nc4ccnn24)CCNCC3)C1 [Example 31.38] | 0.79
CC(C)CCNC(=O)C1CN(c2c3c(nc4ccnn24)CCN(C)CC3)C1 [Example 36.56] | 0.217
COc1ccc(OCC2CN(c3c4c(nc5ccnn35)CCNCC4)C2)cc1 [Example 15.3] | 0.01
CCOc1ccc(OC2CN(c3c4c(nc5ccnn35)CCNCC4)C2)cc1 [Example 35.53] | 0.324
CN1CCc2nc3ccnn3c(N3CC(C(=O)N4CCC(N(C)C)CC4)C3)c2CC1 [Example 36.5] | 0.051
Cc1cnn2c(N3CC(C(=O)N(C)Cc4ccc(C#N)cc4)C3)c3c(nc12)CCNCC3 [Example 31.250] | 0.009
Cn1c(C2CN(c3c4c(nc5ccnn35)CCNCC4)C2)nc2cc(C#N)ccc21 [Example 34.18] | 0.388
Cc1cc(OC2CN(c3c4c(nc5ccnn35)CCNCC4)C2)cc(C)n1 [Example 35.23] | 0.105
O=C(C1CN(c2c3c(nc4ccnn24)CCNCC3)C1)N1CCOC(c2ccccc2)C1 (stereo not shown) [Example 31.8] | 0.094
c1ccc(C2OCCN(c3c4c(nc5ccnn35)CCNCC4)C2c2ccccc2)cc1 (stereo not shown) [Example 1.40] | 1.29
O=C(C1CN(c2c3c(nc4ccnn24)CCNCC3)C1)N1CCC(c2ccccc2)CC1 [Example 31.63] | 0.031
CC#CCN(CC(C)C)C(=O)C1CN(c2c3c(nc4ccnn24)CCNCC3)C1 [Example 31.104] | 0.215
Brc1ccc(OC2CN(c3c4c(nc5ccnn35)CCNCC4)C2)cc1 [Example 35.2] | 0.184
O=C(C1CN(c2c3c(nc4ccnn24)CCNCC3)C1)N1CCC(F)(F)CC1 [Example 31.203] | 0.067
CC1CN(C(=O)C2CN(c3c4c(nc5ccnn35)CCN(C)CC4)C2)CCO1 (stereo not shown) [Example 36.11] | 0.138
Cc1cccc2c1CCN2C(=O)C1CN(c2c3c(nc4ccnn24)CCNCC3)C1 [Example 31.175] | 0.064
CC1(C(=O)N2CCC(C(F)(F)F)CC2)CN(c2c3c(nc4ccnn24)CCNCC3)C1 [Example 32.2] | 8.29
CC(C)C1CCN(C(=O)C2CN(c3c4c(nc5ccnn35)CCNCC4)C2)CC1 [Example 31.85] | 0.023
FC(F)(F)c1ccc2c(c1)nc(C1CN(c3c4c(nc5ccnn35)CCNCC4)C1)n2Cc1ccccc1 [Example 34.34] | 2.09

Structure (SMILES) | EC50 [µM]
CCN1CCN(C(=O)C2CN(c3c4c(nc5ccnn35)CCN(C)CC4)C2)CC1 [Example 36.1, (4-Ethyl-piperazin-1-yl)-[1-(7-methyl-6,7,8,9-tetrahydro-5H-1,4,7,10a-tetraaza-cyclohepta[f]inden-10-yl)-azetidin-3-yl]-methanone] | 0.069
CN1CCC(CNC(=O)C2CN(c3c4c(nc5ccnn35)CCNCC4)C2)CC1 [Example 37.89] | 0.019
CC(C)OCCNC(=O)C1CN(c2c3c(nc4ccnn24)CCNCC3)C1 [Example 37.96] | 0.111
CN1CCc2nc3ccnn3c(N3CC(C(=O)N4CCC5(CC5)C4)C3)c2CC1 [Example 36.37] | 0.061
COc1ccc(OC2CN(c3c4c(nc5ccnn35)CCNCC4)C2)cc1OC [Example 35.49] | 0.137
C[C@@H]1CN(C(=O)C2CN(c3c4c(nc5ccnn35)CCNCC4)C2)C[C@H](C)O1 [Example 31.42] | 0.037
O=C(NC1CCCC(C(F)(F)F)C1)C1CN(c2c3c(nc4ccnn24)CCNCC3)C1 (stereo not shown) [Example 37.59] | 0.047
Fc1ccc(OCC2CN(c3c4c(nc5ccnn35)CCNCC4)C2)cc1 [Example 15, 10-[3-(4-Fluoro-phenoxymethyl)-azetidin-1-yl]-6,7,8,9-tetrahydro-5H-1,4,7,10a-tetraaza-cyclohepta[f]indene] | 0.043
O=C(C1CN(c2c3c(nc4ccnn24)CCNCC3)C1)N1CC[C@H](c2ccccc2)C1 [Example 31.224] | 0.045
O=C(C1CN(c2c3c(nc4ccnn24)CCNCC3)C1)N1C[C@@H]2C[C@H]1CN2 [Example 37.28] | 0.006
c1ccc(C(OC2CCCN(c3c4c(nc5ccnn35)CCNCC4)C2)c2ccccc2)cc1 (stereo not shown) [Example 1.37] | 1.3
O=C(NCCC(F)(F)F)C1CN(c2c3c(nc4ccnn24)CCNCC3)C1 [Example 37.63] | 0.084
Cn1c(C2CN(c3c4c(nc5ccnn35)CCNCC4)C2)nc2cc(Cl)ccc21 [Example 34.3] | 0.418
CC(C)CNC(=O)C1CN(c2c3c(nc4ccnn24)CCNCC3)C1 [Example 37.78] | 0.082
O=C(C1CN(c2c3c(nc4ccnn24)CCNCC3)C1)N1CCCC(Cc2ccc(F)cc2)C1 (stereo not shown) [Example 31.101] | 0.062
Cc1ccc(OC2CN(c3c4c(nc5ccnn35)CCNCC4)C2)cc1 [Example 35.45] | 0.129
O=C(NCCCC(F)(F)F)C1CN(c2c3c(nc4ccnn24)CCNCC3)C1 [Example 37.66] | 0.042
O=C(C1CN(c2c3c(nc4ccnn24)CCNCC3)C1)N1CCC(Oc2ccccc2Cl)CC1 [Example 31.145] | 0.094
O=C(CC1CN(c2c3c(nc4ccnn24)CCNCC3)C1)N1CCc2cc(F)ccc21 [Example 33.2] | 0.02
O=C(C1CN(c2c3c(nc4ccnn24)CCNCC3)C1)N1CCc2ccccc21 [Example 31.143] | 0.049
Cc1cccnc1CN(C)C(=O)C1CN(c2c3c(nc4ccnn24)CCNCC3)C1 [Example 31.196] | 0.195
CC1(N)CCN(C(=O)C2CN(c3c4c(nc5ccnn35)CCNCC4)C2)CC1 [Example 37.18] | 0.002
FC(F)(F)c1cccc(OC2CN(c3c4c(nc5ccnn35)CCNCC4)C2)c1 [Example 1.7] | 0.042
O=C(C1CN(c2c3c(nc4ccnn24)CCNCC3)C1)N1CCc2ccccc2CC1 [Example 31.33] | 0.196
FC(F)(F)c1ccc(OC2CN(c3c4c(nc5ccnn35)CCNCC4)C2)nc1 [Example 20.8] | 0.939

Structure (SMILES) | EC50 [µM]
CC(C)=CCN1CCC(NC(=O)C2CN(c3c4c(nc5ccnn35)CCNCC4)C2)CC1 [Example 43, 1-(6,7,8,9-Tetrahydro-5H-1,4,7,10a-tetraaza-cyclohept[f]inden-10-yl)-azetidine-3-carboxylic acid [1-(3-methyl-but-2-enyl)-piperidin-4-yl]-amide] | 0.008
O=C(C1CN(c2c3c(nc4ccnn24)CCNCC3)C1)N1CCc2ccc(C(F)(F)F)cc21 [Example 31.157] | 0.034
CN(c1ccccc1)C1CCN(C(=O)C2CN(c3c4c(nc5ccnn35)CCNCC4)C2)CC1 [Example 37.46] | 0.002
Cc1cccc(CN(C)C(=O)C2CN(c3c4c(nc5ccnn35)CCNCC4)C2)c1 [Example 31.49] | 0.051
CC1CNCCc2nc3ccnn3c(N3CCC3)c21 (stereo not shown) [Example 5, 10-Azetidin-1-yl-9-methyl-6,7,8,9-tetrahydro-5H-1,4,7,10a-tetraaza-cyclohepta[f]indene] | 0.57
CC(CC1CCCCC1)NC(=O)C1CN(c2c3c(nc4ccnn24)CCNCC3)C1 (stereo not shown) [Example 37.108] | 0.072
COc1ccc(CCN(C)C(=O)C2CN(c3c4c(nc5ccnn35)CCNCC4)C2)cc1 [Example 31.27] | 0.274
O=C(NCC1CCCC1)C1CN(c2c3c(nc4ccnn24)CCNCC3)C1 [Example 37.103] | 0.068
CCc1ccc(CN(C)C(=O)C2CN(c3c4c(nc5ccnn35)CCNCC4)C2)cc1 [Example 31.170] | 0.064
O=C(NCCN1CCCCC1)C1CN(c2c3c(nc4ccnn24)CCNCC3)C1 [Example 37.81] | 0.04
CN(C)C1CN(C(=O)C2CN(c3c4c(nc5ccnn35)CCNCC4)C2)C1 [Example 37.33] | 0.007
CC1CNCCc2c1nc1c(Br)cnn1c2N1CCC1 (stereo not shown) [Example 4, 10-Azetidin-1-yl-3-bromo-5-methyl-6,7,8,9-tetrahydro-5H-1,4,7,10a-tetraaza-cyclohepta[f]indene] | 0.679
Fc1ccc(OC2CN(c3c4c(nc5ccnn35)CCNCC4)C2)cc1F [Example 35.55] | 0.115
CN(CCc1ccc2ccccc2c1)C(=O)C1CN(c2c3c(nc4ccnn24)CCNCC3)C1 [Example 31.71] | 0.366
CN1CCc2nc3ccnn3c(N3CC(C(=O)NCCCC(F)(F)F)C3)c2CC1 [Example 36.47] | 0.13
O=C(C1CN(c2c3c(nc4ccnn24)CCNCC3)C1)N1CCCC(c2ccccc2)CC1 (stereo not shown) [Example 31.152] | 0.077
CN1CCc2nc3ccnn3c(N3CC(C(=O)N4CCNC(=O)C4)C3)c2CC1 [Example 36.14] | 0.364
O=C(C1CN(c2c3c(nc4ccnn24)CCNCC3)C1)N1CC2CCCC2C1 (stereo not shown) [Example 31.166] | 0.097
CNC1CCN(C(=O)C2CN(c3c4c(nc5ccnn35)CCNCC4)C2)C1 (stereo not shown) [Example 37.26] | 0.002
CN(Cc1ccccc1Cl)C(=O)C1CN(c2c3c(nc4ccnn24)CCNCC3)C1 [Example 31.37] | 0.068
COC[C@@H]1CCN1c1c2c(nc3ccnn13)CCNCC2 [Example 8, (S)-10-(2-Methoxymethyl-azetidin-1-yl)-6,7,8,9-tetrahydro-5H-1,4,7,10a-tetraaza-cyclohepta[f]indene] | 0.272
FC(F)(F)Oc1ccc(OC2CN(c3c4c(nc5ccnn35)CCNCC4)C2)cc1 [Example 35.32] | 0.411
c1ccc2cc(OC3CN(c4c5c(nc6ccnn46)CCNCC5)C3)ccc2c1 [Example 35.46] | 0.495
